The source of these data is patent US12503436B2, “Compounds and compositions for treating conditions associated with STING activity” (NOVARTIS PHARMA AG, priority 2021, dated 2025).

STING, sequence (Q86WV6 whole entry R71H/G230A/H232R/R293Q): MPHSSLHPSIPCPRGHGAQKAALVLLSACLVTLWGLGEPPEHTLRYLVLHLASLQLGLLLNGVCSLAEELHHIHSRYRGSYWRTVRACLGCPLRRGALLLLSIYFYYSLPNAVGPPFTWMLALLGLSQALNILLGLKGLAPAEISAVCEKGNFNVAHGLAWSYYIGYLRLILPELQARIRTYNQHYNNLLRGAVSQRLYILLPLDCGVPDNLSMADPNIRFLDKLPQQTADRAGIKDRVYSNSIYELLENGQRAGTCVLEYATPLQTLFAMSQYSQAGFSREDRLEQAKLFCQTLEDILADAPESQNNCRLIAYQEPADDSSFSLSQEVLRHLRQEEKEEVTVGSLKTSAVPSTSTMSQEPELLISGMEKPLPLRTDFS

The experiment concerns the target STING (Homo sapiens, UniProt Q86WV6, G230A/H232R/R293Q/R71H). The experiment is described as follows: STING reporter assay in THP1-Dual KO-IFNAR2 cells (2′3′cGAMP stimulation, luciferase reporter). The following applies: 15 μM 2′3′cGAMP stimulation, 24 h, read-out: Pharmaron, THP1_IFNAR2 STING 24 h Luci Normalized: GeoMean EC50. The format is cell-based. The method in brief: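 EC50 from secreted luciferase (QUANTI-Luc Plus luminescence of supernatant) after 24 h at 37 °C, 5% CO2. Cells: THP1-Dual KO-IFNAR2, treated with compound (0.0017-100 μM final) plus lipofected 2′3′cGAMP at 15 μM final.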
Turning to `CC(=O)Nc1c[nH]c2ccc(CCC3(c4ccc(C(F)(F)F)cc4)COC3)cc12` [Compound 508, N-(5-(2-(3-(4-(trifluoromethyl)phenyl)oxetan-3-yl)ethyl)-1H-indol-3-yl)acetamide], the EC50 is 5000 to 100000 nM. The value for `COCC(=O)Nc1c[nH]c2ccc(COc3ccc(C(F)(F)F)cc3)cc12` [Compound 273, 2-methoxy-N-(5-((4-(trifluoromethyl)phenoxy)methyl)-1H-indol-3-yl)acetamide] was 40 to 200 nM; that for `CC(=O)Nc1c[nH]c2ccc(CCOc3ccc(C4CCOCC4)cc3)cc12` [Compound 226, N-(5-(2-(4-(tetrahydro-2H-pyran-4-yl)phenoxy)ethyl)-1H-indol-3-yl)acetamide] was 1000 to 5000 nM; that for `CC1(C(=O)Nc2c[nH]c3ccc(OCc4ccc(C(F)(F)F)cc4)cc23)CCOC1` (stereo not drawn) [Compound 154, 3-methyl-N-(5-((4-(trifluoromethyl)benzyl)oxy)-1H-indol-3-yl)tetrahydrofuran-3-carboxamide] was 200 to 1000 nM. With `O=C(Nc1c[nH]c2ccc(OCCc3ccc(C(F)(F)F)cc3)cc12)C1CN(CC(F)F)C1` [Compound 149, 1-(2,2-difluoroethyl)-N-(5-(4-(trifluoromethyl)phenethoxy)-1H-indol-3-yl)azetidine-3-carboxamide], the EC50 fell in the range of 40 to 200 nM.

For the compound `CC(=O)Nc1c[nH]c2ccc(OCC3Cc4cnn(CC(F)(F)F)c4C3)cc12` (stereo not drawn) [Compound 444, N-(5-((1-(2,2,2-trifluoroethyl)-1,4,5,6-tetrahydrocyclopenta[c]pyrazol-5-yl)methoxy)-1H-indol-3-yl)acetamide], the EC50 is 5000 to 100000 nM. The same measure for `CC1(C(=O)Nc2c[nH]c3ccc(CCOc4ccc(C(F)(F)F)cc4)cc23)CCCO1` (stereo not drawn) [Compound 396, 2-methyl-N-(5-(2-(4-(trifluoromethyl)phenoxy)ethyl)-1H-indol-3-yl)tetrahydrofuran-2-carboxamide]: 200 to 1000 nM; for `CC(=O)Nc1c[nH]c2ccc(OCC[C@@H]3C[C@@H]4CN(CC(F)(F)F)C[C@@H]4C3)cc12` [Compound 283, N-(5-(2-((3aR,5r,6aS)-2-(2,2,2-trifluoroethyl)octahydrocyclopenta[c]pyrrol-5-yl)ethoxy)-1H-indol-3-yl)acetamide]: 200 to 1000 nM. For the compound `CC(=O)Nc1c[nH]c2ccc(OCC(F)C3CCN(CC(F)(F)F)CC3)cc12` (stereo not drawn) [Compound 105, N-(5-(2-fluoro-2-(1-(2,2,2-trifluoroethyl)piperidin-4-yl)ethoxy)-1H-indol-3-yl)acetamide], the EC50 was 1000 to 5000 nM. The value for `CC1(C(=O)Nc2c[nH]c3ccc(O[C@H]4C[C@H](c5ccc(C(F)(F)F)cc5)C4)cc23)CCC1` [Compound 564, 1-methyl-N-(5-(trans-3-(4-(trifluoromethyl)phenyl)cyclobutoxy)-1H-indol-3-yl)cyclobutane-1-carboxamide] was 40 to 200 nM.

For the compound `CCO/C=C/c1ccc2[nH]cc(NC(=O)C3CCC3)c2c1` [Compound 143, (E)-N-(5-(2-ethoxyvinyl)-1H-indol-3-yl)cyclobutanecarboxamide], the EC50 is 1000 to 5000 nM.

With `COCC1(C(=O)Nc2c[nH]c3ccc(O[C@H]4C[C@@H](c5ccc(C(F)(F)F)cc5)C4)cc23)CC1` [Compound 333, 1-(methoxymethyl)-N-(5-(cis-3-(4-(trifluoromethyl)phenyl)cyclobutoxy)-1H-indol-3-yl)cyclopropane-1-carboxamide], the EC50 is 1000 to 5000 nM. The same measure for `CC1(C(=O)Nc2c[nH]c3ccc(O[C@H]4C[C@@H](c5ccc(C(F)(F)F)cc5)C4)cc23)CC1` [Compound 263, 1-methyl-N-(5-(cis-3-(4-(trifluoromethyl)phenyl)cyclobutoxy)-1H-indol-3-yl)cyclopropane-1-carboxamide]: 200 to 1000 nM; for `C[C@@H]1OC[C@H]1C(=O)Nc1c[nH]c2ccc(OCC[C@@H]3C[C@@H]4CN(CC(F)(F)F)C[C@@H]4C3)cc12` [Compound 509, (2S,3R)-2-methyl-N-(5-(2-((3aR,5r,6aS)-2-(2,2,2-trifluoroethyl)octahydrocyclopenta[c]pyrrol-5-yl)ethoxy)-1H-indol-3-yl)oxetane-3-carboxamide]: 1000 to 5000 nM; for `N#CC1CCC1C(=O)Nc1c[nH]c2ccc(O[C@H]3C[C@@H](c4ccc(C(F)(F)F)cc4)C3)cc12` (stereo partly drawn) [Compound 355, 2-cyano-N-(5-(cis-3-(4-(trifluoromethyl)phenyl)cyclobutoxy)-1H-indol-3-yl)cyclobutane-1-carboxamide]: 200 to 1000 nM. The value for `CC(=O)Nc1c[nH]c2ccc(CCOc3ccc(OCC(F)(F)F)cc3)cc12` [Compound 452, N-(5-{2-[4-(2,2,2-trifluoroethoxy)phenoxy]ethyl}-1H-indol-3-yl)acetamide] was 40 to 200 nM; that for `CC(=O)Nc1c[nH]c2ccc(OCCC3CCN(c4ccc(C(F)(F)F)cc4)CC3)cc12` [Compound 104, N-(5-(2-(1-(4-(trifluoromethyl)phenyl)piperidin-4-yl)ethoxy)-1H-indol-3-yl)acetamide] was 200 to 1000 nM; that for `O=C(Nc1c[nH]c2ccc(O[C@H]3C[C@@H](c4ccc(C(F)(F)F)cc4)C3)cc12)C1(CO)CCC1` [Compound 420, 1-(hydroxymethyl)-N-(5-(cis-3-(4-(trifluoromethyl)phenyl)cyclobutoxy)-1H-indol-3-yl)cyclobutane-1-carboxamide] was 200 to 1000 nM. Regarding `CC(=O)Nc1c[nH]c2ccc(CC(O)Cc3ccc(C(F)(F)F)cc3)cc12` (stereo not drawn) [Compound 284, N-(5-(2-hydroxy-3-(4-(trifluoromethyl)phenyl)propyl)-1H-indol-3-yl)acetamide], the EC50 fell in the range of 200 to 1000 nM. The same measure for `C[C@H]1C[C@@H]1C(=O)Nc1c[nH]c2ccc(OCCc3ccc(C(F)(F)F)cc3)cc12` [Compound 206, (1S,2S)-2-methyl-N-(5-(4-(trifluoromethyl)phenethoxy)-1H-indol-3-yl)cyclopropane-1-carboxamide]: 40 to 200 nM; for `CC(=O)Nc1c[nH]c2c(F)cc(COCc3ccc(C(F)(F)F)cc3)cc12` [Compound 276, N-(7-fluoro-5-(((4-(trifluoromethyl)benzyl)oxy)methyl)-1H-indol-3-yl)acetamide]: 1000 to 5000 nM; for `CC1(C(=O)Nc2c[nH]c3ccc(OC4CC(c5ccc(C(F)(F)F)nc5)C4)cc23)CC1` (stereo in doubt) [Compound 580, 1-methyl-N-(5-(cis-3-(6-(trifluoromethyl)pyridin-3-yl)cyclobutoxy)-1H-indol-3-yl)cyclopropane-1-carboxamide]: 40 to 200 nM.

For `CC(=O)Nc1c[nH]c2ccc(CCOc3ccc(Cl)cc3C(F)(F)F)cc12` [Compound 450, N-(5-{2-[4-chloro-2-(trifluoromethyl)phenoxy]ethyl}-1H-indol-3-yl)acetamide], the EC50 lay within 200 to 1000 nM. Take `CC1(F)CC(C(=O)Nc2c[nH]c3ccc(CCOc4ccc(C(F)(F)F)cc4)cc23)C1` (stereo not drawn) [Compound 395, 3-fluoro-3-methyl-N-(5-(2-(4-(trifluoromethyl)phenoxy)ethyl)-1H-indol-3-yl)cyclobutane-1-carboxamide]: the EC50 lay in the range of 200 to 1000 nM. Turning to `CC(C)(C)C(=O)Nc1c[nH]c2ccc(O[C@H]3C[C@@H](c4ccc(C(F)(F)F)cc4)C3)cc12` [Compound 354, N-(5-(cis-3-(4-(trifluoromethyl)phenyl)cyclobutoxy)-1H-indol-3-yl)pivalamide], the half-maximal effective concentration (EC50) fell in the range of 200 to 1000 nM.

As to `CC1(C(=O)Nc2c[nH]c3ccc(O[C@H]4C[C@@H](c5ccc(C(F)(F)F)cc5)C4)cc23)CCNCC1` [Compound 529, 4-methyl-N-(5-(cis-3-(4-(trifluoromethyl)phenyl)cyclobutoxy)-1H-indol-3-yl)piperidine-4-carboxamide], the EC50 is 5000 to 100000 nM. The same measure for `O=C(Nc1c[nH]c2ccc(CCOc3ccc(C(F)(F)F)cc3)cc12)C1CC(O)C1` (stereo not drawn) [Compound 310, 3-hydroxy-N-(5-(2-(4-(trifluoromethyl)phenoxy)ethyl)-1H-indol-3-yl)cyclobutane-1-carboxamide]: 40 to 200 nM. The same measure for `COCCOCC(=O)Nc1c[nH]c2ccc(CCOc3ccc(C(F)(F)F)cc3)cc12` [Compound 406, 2-(2-methoxyethoxy)-N-(5-(2-(4-(trifluoromethyl)phenoxy)ethyl)-1H-indol-3-yl)acetamide]: 200 to 1000 nM. The same measure for `CC1OC(C)C1C(=O)Nc1c[nH]c2ccc(OCc3ccc(C(F)(F)F)cc3)cc12` (stereo not drawn) [Compound 428, 2,4-dimethyl-N-(5-((4-(trifluoromethyl)benzyl)oxy)-1H-indol-3-yl)oxetane-3-carboxamide]: 200 to 1000 nM; for `CC(C)(C)CC(=O)Nc1c[nH]c2ccc(O[C@H]3C[C@@H](c4ccc(C(F)(F)F)cc4)C3)cc12` [Compound 157, 3,3-dimethyl-N-(5-(cis-3-(4-(trifluoromethyl)phenyl)cyclobutoxy)-1H-indol-3-yl)butanamide]: 40 to 200 nM. For “3-hydroxy-N-(5-(2-((3aR,5r,6aS)-2-(2,2,2-trifluoroethyl)octahydrocyclopenta[c]pyrrol-5-yl)ethoxy)-1H-indol-3-yl)cyclobutane-1-carboxamide [Compound 347]”, the EC50 fell in the range of 200 to 1000 nM. Regarding `CC1(C)CC1C(=O)Nc1c[nH]c2ccc(OCc3ccc(C(F)(F)F)cc3)cc12` (stereo not drawn) [Compound 155, 2,2-dimethyl-N-(5-((4-(trifluoromethyl)benzyl)oxy)-1H-indol-3-yl)cyclopropane-1-carboxamide], the EC50 was 200 to 1000 nM. The same measure for `O=C(Nc1c[nH]c2ccc(O[C@H]3C[C@H](c4ccc(C(F)(F)F)cc4)C3)cc12)C1CN(CCC(F)(F)F)C1` [Compound 227, N-(5-(trans-3-(4-(trifluoromethyl)phenyl)cyclobutoxy)-1H-indol-3-yl)-1-(3,3,3-trifluoropropyl)azetidine-3-carboxamide]: 40 to 200 nM.
